Data: BindingDB's records for doi:10.1021/jm00157a018 (1987)
Residues, ends and D or L forms follow the SMILES beside them. *: point of attachment. X2 = O=C(N/N=C1/CC[C@@]2(O)[C@H]3Cc4ccc(O)c5c4[C@@]2(CCN3CC2CC2)[C@H]1O5)*; X1 = CN1CC[C@]23c4c5ccc(O)c4O[C@H]2/C(=N\NC(=O)*)CC[C@@]3(O)[C@H]1C5

Legend:
[1] = Binding affinity against Opioid receptor delta 1 of guinea pig brain membranes using 1 nM of [3H]DADLE as radioligand
[2] = biological target: Mu-type opioid receptor (Cavia porcellus, UniProt P97266); experiment: ChEBML_145291
Chain of Mu-type opioid receptor (P97266 whole entry): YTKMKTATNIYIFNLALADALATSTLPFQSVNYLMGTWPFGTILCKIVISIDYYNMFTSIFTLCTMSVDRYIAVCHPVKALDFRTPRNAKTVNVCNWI

Structure (SMILES) | Ki [1] [nM] | Ki [2] [nM]
CC[C@H](C)[C@H](NC(=O)[C@H](CCCNC(=N)N)NC(=O)[C@H](CCCNC(=N)N)NC(=O)[C@H](CC(C)C)NC(=O)[C@H](Cc1ccccc1)NC(=O)CNC(=O)CNC(=O)[C@@H](N)Cc1ccc(O)cc1)C(=O)OC | 50 | 
CN1CCC23c4c5ccc(O)c4O[C@H]2C(=NNC(N)=O)CC[C@@]3(O)C1C5 (stereo partly drawn) | 69 | 15
CC[C@H](C)[C@H](NC(=O)[C@H](CCCN=C(N)N)NC(=O)[C@H](CCCN=C(N)N)NC(=O)[C@H](CC(C)C)NC(=O)[C@H](Cc1ccccc1)NC(=O)N/N=C1/CC[C@@]2(O)[C@H]3Cc4ccc(O)c5c4[C@@]2(CCN3CC2CC2)[C@H]1O5)C(=O)OC (X2-FLRRI-OMe) | 5.7 | 
CC[C@H](C)[C@H](NC(=O)[C@H](CCCN=C(N)N)NC(=O)[C@H](CCCN=C(N)N)NC(=O)[C@H](CC(C)C)NC(=O)[C@H](Cc1ccccc1)NC(=O)N/N=C1/CC[C@@]2(O)[C@H]3Cc4ccc(O)c5c4[C@@]2(CCN3C)[C@H]1O5)C(=O)OC (X1-FLRRI-OMe) | 24 | 
CC(C)CC(NC(=O)C(Cc1ccccc1)NC(=O)NN=C1CC[C@@]2(O)C3Cc4ccc(O)c5c4C2(CCN3CC2CC2)[C@H]1O5)C(=O)O (stereo partly drawn) | 3.1 | 
NC(=O)NN=C1CC[C@@]2(O)C3Cc4ccc(O)c5c4C2(CCN3CC2CC2)[C@H]1O5 (stereo partly drawn) | 3.7 | 
CC(C)CC(NC(=O)C(Cc1ccccc1)NC(=O)NN=C1CC[C@@]2(O)C3Cc4ccc(O)c5c4C2(CCN3C)[C@H]1O5)C(=O)O (stereo partly drawn) | 6.5 | 
